Results from patent US10294275B2, “Site-selective functionalization of glycopeptide antibiotics” (Yale University, priority 2012, dated 2019).
In brackets after ≈: the same amount, converted by molar mass.

Columns and labels:
[1] = tested on: methicillin-susceptible S. aureus, ATCC 29213; test: Minimum inhibitory concentration against MSSA; type: cell-based; conditions: Staphylococcus aureus, read-out: MIC, MSSA
Excerpt: (§1) The chemistry described above enabled direct synthesis of eleven previously unknown analogs of 3. The minimum inhibitory concentrations (MICs) for the new analogs as antibacterial agents as determined.

Staphylococcus aureus = conditions: cited from earlier work
[2] = tested on: methicillin-resistant S. aureus, ATCC 43300; test: Minimum inhibitory concentration against MRSA; type: cell-based; conditions: Staphylococcus aureus, read-out: MIC, MRSA
Excerpt: as §1

[3] = tested on: vancomycin-resistant enterococci (VanA), MMX 486; test: Minimum inhibitory concentration against VRE (VanA); type: cell-based; conditions: Enterococcus, VRE, read-out: MIC, VRE (VanA)
Excerpt: as §1

[4] = tested on: vancomycin-resistant enterococci (VanB), ATCC 51299; test: Minimum inhibitory concentration against VRE (VanB); type: cell-based; conditions: Enterococcus, read-out: MIC, VRE (VanB)
Excerpt: as §1

[5] = tested on: vancomycin-susceptible enterococci, ATCC 29212; test: Minimum inhibitory concentration against VSE; type: cell-based; conditions: read-out: MIC, VSE
Excerpt: as §1

For `CN[C@H](CC(C)C)C(=O)N[C@H]1C(=O)N[C@@H](CC(N)=O)C(=O)N[C@H]2C(=O)N[C@H]3C(=O)N[C@H](C(=O)N[C@H](C(=O)O)c4cc(O)cc(O)c4-c4cc3ccc4O)[C@H](O)c3ccc(c(Cl)c3)Oc3cc2cc(c3O[C@@H]2O[C@H](CO)[C@@H](O)[C@H](O)[C@H]2O[C@H]2C[C@](C)(N)[C@H](O)[C@H](C)O2)Oc2ccc(cc2Cl)[C@H]1O` [Vancomycin, vancomycin, reference compound], the MIC [1] is given as 0.5 µg/mL (≈ 0.345 µM), the “in vitro MIC against Staphylococcus aureus” value (Staphylococcus aureus) is given as 0.25 to 10 µg/mL and the MIC [2] is given as 1 µg/mL (≈ 0.69 µM). It also gave an MIC [3] greater than 64 µg/mL, an MIC [4] of 16 µg/mL (≈ 11 µM) and an MIC [5] of 2 µg/mL (≈ 1.38 µM).
